Columns and labels:
S. aureus SgtB [1] = target: T1, S. aureus SgtB (Staphylococcus aureus, UniProt Q99T05); assay type: binding; conditions: for drop in FP (probe displacement) when used instead of moenomycin: detergent controls
T1 sequence (Q99T05 1-269): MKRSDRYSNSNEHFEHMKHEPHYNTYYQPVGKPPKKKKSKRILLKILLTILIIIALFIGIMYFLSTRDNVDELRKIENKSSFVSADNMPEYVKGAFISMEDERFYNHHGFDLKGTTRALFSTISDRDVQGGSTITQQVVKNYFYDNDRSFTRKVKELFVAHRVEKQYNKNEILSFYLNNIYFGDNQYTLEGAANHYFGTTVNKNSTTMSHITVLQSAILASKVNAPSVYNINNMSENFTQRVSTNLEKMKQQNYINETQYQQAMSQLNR

E. coli PBP1b = E. coli PBP1b (Escherichia coli, UniProt P02919); test: in vitro PGT inhibition; assay type: biochemical
S. aureus SgtB [2] = target: T1, S. aureus SgtB; assay type: biochemical
[3] = background statement; cited from earlier work

E. coli PBP1b, sequence (P02919 whole entry): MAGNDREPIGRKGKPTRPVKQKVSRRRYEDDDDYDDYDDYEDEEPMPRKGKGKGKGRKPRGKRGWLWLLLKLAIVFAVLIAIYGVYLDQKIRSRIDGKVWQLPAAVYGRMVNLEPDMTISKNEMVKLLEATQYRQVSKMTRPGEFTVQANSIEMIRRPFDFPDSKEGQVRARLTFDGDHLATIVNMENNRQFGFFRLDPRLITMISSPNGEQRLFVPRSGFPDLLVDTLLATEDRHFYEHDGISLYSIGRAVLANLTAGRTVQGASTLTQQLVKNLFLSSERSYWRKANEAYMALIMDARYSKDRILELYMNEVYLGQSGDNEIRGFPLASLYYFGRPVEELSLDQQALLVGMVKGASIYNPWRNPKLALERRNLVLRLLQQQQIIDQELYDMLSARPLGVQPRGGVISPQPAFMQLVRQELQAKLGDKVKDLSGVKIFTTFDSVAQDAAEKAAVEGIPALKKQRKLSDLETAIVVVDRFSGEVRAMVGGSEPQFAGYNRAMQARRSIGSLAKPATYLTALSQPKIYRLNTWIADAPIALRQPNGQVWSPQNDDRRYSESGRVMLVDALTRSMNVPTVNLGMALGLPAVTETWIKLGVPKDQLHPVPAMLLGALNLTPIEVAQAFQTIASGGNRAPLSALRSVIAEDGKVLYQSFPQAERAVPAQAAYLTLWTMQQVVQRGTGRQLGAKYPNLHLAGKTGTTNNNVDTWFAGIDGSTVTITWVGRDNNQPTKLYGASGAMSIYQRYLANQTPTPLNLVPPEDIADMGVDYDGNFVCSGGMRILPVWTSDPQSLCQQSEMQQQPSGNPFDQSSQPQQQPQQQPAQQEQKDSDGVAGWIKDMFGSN

Molecule | drop in FP (probe displacement) when used instead of moenomycin (S. aureus SgtB [1]) | inhibition of enzyme (in words) (E. coli PBP1b) | inhibition of enzyme (in words) (S. aureus SgtB [2]) | Ki (S. aureus SgtB [1]; read-out: Ki, displacement of probe 2, probe 2 75 nM, S. aureus SgtB 0.2 μM) [nM] | oral bioavailability [3] | serum half life [3]
CCCCCCCCCCCCO[C@@H]1O[C@H](CO)[C@@H](O[C@H]2O[C@H](CO)[C@@H](O)[C@H](O)[C@H]2O)[C@H](O)[C@H]1O [dodecyl maltoside] | no significant drop in FP | – | – | – | – | –
moenomycin A [compound 1] | – | low-nanomolar inhibition | low-nanomolar inhibition | 640 | poor oral bioavailability | long serum half life
tween-20 | no significant drop in FP | – | – | – | – | –
